How the values were obtained:
[1] = test system: brain organoid of the versatile biohybrid robot; assay: Movement of the versatile biohybrid robot in co-culture media; set-up: species or system human; details: brain organoid stimulated using glutamate; 0.27 cm/min before stimulation
brain organoids = assay: Electrophysiological signal measurement of retinal/brain organoid conjugates using a multi-electrode array; format: cell-based, human; details: 100 μM glutamate mixed into the co-culture medium
Procedure: The formation of conjugates of brain organoids and retinal organoids in Examples 1-3 above was confirmed through signal measurement using a multi-electrode array. Retinal/brain organoids were placed on electrodes of the multi-electrode array for signal measurement, and then the generation of electrophysiological signals was measured while light was applied to the retinal organoids. In addition, glutamate was added as a neurotransmitter to the co-culture medium used in the multi-electrode array, and electrophysiological signals generated from brain organoids were measured.

N[C@@H](CCC(=O)O)C(=O)O [glutamate]
movement of the biohybrid robot after stimulation [1]: 0.52 cm/min | electrophysiological signals generated by stimulating brain organoids (brain organoids): transmitted to the brain organoids

From patent US20260265689A1, “BIOHYBRID ROBOT INCLUDING RETINAL/BRAIN ORGANOID, MOTOR NERVE SPHEROID, AND MUSCLE BUNDLE, AND MANUFACTURING METHOD THEREFOR” (SOGANG UNIVERSITY RESEARCH & BUSINESS DEVELOPMENT FOUNDATION, priority 2023, published 2026)
